Data set [1] has as its system dogs. Briefly: Canine implanted central catheter 72 hour continuous infusion model (clinical and microscopic pathology of vasculature). Type of data set: in vivo. As to the method: To determine the cause of the inflammation and hind limb swelling, a series of 72-hour continuous infusion investigative studies were conducted over the following 6 months. […] The first site of inflammation, the catheter insertion site, caused the dog hind limb swelling and inflammation observed in the early-terminated follow-up study. Increasing infusate pH from 4 to 6 decreased inflammation, improving the inflammatory profile by approximately 3-fold (see FIG. 4).
Confirmation of this was obtained through evaluating the nitroxyl donors through detailed histopathology of the vasculature at the site of insertion of into the femoral vein (15 cm distal to the catheter tip), along the catheter track to the catheter tip, and past the tip downstream 20 cm.
A composite score was calculated from the sum of these findings scores. In FIG. 3, the cumulative histology composite score ranges from 0-2 (low severity) to 11-12 (high severity). […] The NOAEL values determined based on these microscopic pathology markers for a series of nitroxyl donors, expressed in molar equivalent dose rates (μg/kg/min) to CXL-1020, are provided in Table 8.

Data set [2] is described as follows: In vitro stability (half-life) in human plasma. The class given is in vitro ADME. The settings on record: male, human plasma pH 7.4 with anticoagulant, 37° C., read-out: T1/2 (minutes) Human. As to the method: (§1) Certain compounds from Tables 1 and 2 and CXL-1020 were tested for their stability in phosphate buffered saline (PBS) and plasma. The assay system comprised (i) PBS, or plasma from rat, dog or human (at least 3 donors, male, pooled) at pH 7.4, and (ii) for tests conducted in plasma, an anticoagulant (sodium heparin or sodium citrate). Each test compound (5 μM) was incubated in PBS or plasma at 37° C. on a THERMOMIXER® with shaking. Three samples (n=3) were taken at each of seven sampling time points: 0, 10, 30, 60, 90, 180 and 360 minutes. The samples were immediately combined with 3 volumes (i.e., 3 times the volume of PBS or plasma) of acetonitrile containing 1% formic acid and an internal standard to terminate the reaction. AB SCIEX API 3000 LC-MS/MS analysis of the test compounds was performed without a standard curve. Half-lives (T1/2) of the test compounds were determined from graphs of the percent remaining values using the peak area response ratio. For compounds tested multiple times, the value provided in the Table represents an average of the replicate assays.

Data set [3] in a line: In vitro stability (half-life) in phosphate buffered saline (PBS) pH 7.4. Type of data set: physicochemical. The settings on record: pH 7.4, 5 μM, PBS pH 7.4, 37° C., read-out: T1/2 (minutes) PBS. As to the method:
as §1

The test system of data set [4] is beagle dogs. Briefly: Canine peripheral vein toxicity model, 24 hour infusion (clinical pathology markers of inflammation: WBC, fibrinogen, CRP). Type of data set: in vivo. The method, then:
Key inflammatory markers measured include white blood cells (WBC), fibrinogen, and C-reactive protein (CRP).
After 24 hours of infusion, clinical pathology changes similar to those observed in previous studies using an implanted central catheter were detected.
Studies were conducted in male and female beagle dogs. Animals were allowed free access to drinking water and a commercial canine diet under standard laboratory conditions. Animals were fasted prior to blood sample collections when indicated by the study protocol. Fluorescent lighting was provided via an automatic timer for approximately 12 hours per day. On occasion, the dark cycle was interrupted intermittently due to study-related activities. Temperature and humidity were monitored and recorded daily and maintained to the maximum extent possible between 64° F. to 84° F. and 30% to 70%, respectively. The dogs were acclimated for a period of at least 1 week. During this period, the animals were weighed weekly and observed with respect to general health and any signs of disease. The animals were acclimated to wearing a jacket for at least three days prior to dose administration. Additionally, the animals were also acclimated to wearing an Elizabethan collar (e-collar) during the jacket acclimation.
Animals were catheterized the day prior to dose administration. A percutaneous catheter was placed (using aseptic technique and sterile bandaging) in the cephalic vein distal to the elbow. The animals were free-moving in their cages during continuous infusion dose administration. To facilitate continuous infusion dose administration, the peripheral catheter was attached to an extension set routed underneath a canine jacket and then attached to a tether infusion system. To prevent the animals from accessing/removing the peripherally placed percutaneous catheter, the catheterization site was bandaged using Vet Wrap and an e-collar was placed on the animals for the duration of the treatment (i.e., the catheterized period). During the pretreatment period, the venous catheter was infused continuously at a rate of approximately 2-4 mL/hr with 0.9% sodium chloride for injection, USP (saline) to maintain catheter patency. Prior to dosing, the infusion system was pre-filled (slow bolus infusion) with the respective dosing solution to ensure that dosing began as soon as the infusion pump was started. The infusion line was connected to a reservoir containing the control or test compound and the infusion was started. Test compositions were infused continuously, at a predetermined constant infusion rate (1 or 2 mL/kg/hr), for 24 hours and were compared at molar equivalent dose rates.
A detailed clinical examination of each animal was performed twice daily and body temperature measurements and blood samples for clinical pathology were collected from all animals pre-dose and 6 hours, 12 hours, 24 hours and 72 hours post start of composition infusion. At the termination of the study, all animals were euthanized at their scheduled necropsy and complete necropsy examinations were performed. Selected tissues were collected, fixed and stored for potential future microscopic examination. The cephalic vein containing the infusion catheter was dissected intact along with the brachial vein and examined along its entire length. The location of the catheter tip was marked on the unfixed specimen. After fixation, the specimen was trimmed and processed to slide to provide transverse histologic sections representing the catheter tip and surrounding tissues both proximal and distal to the catheter tip (i.e., 1 cm distal to the catheter tip, at the catheter tip, and 1, 5, 10, 15, and 20 cm proximal to the catheter tip). Relative to the catheter tip, “proximal” was defined as closer to the heart and “distal” was defined as further from the heart.
Each compound was formulated with CAPTISOL® (7% w/v) in sterile water at a pH of 4. […]

The test system of data set [5] is dogs. Briefly: Toxicological profile of compositions formulated at pH 4 or pH 6, 24 hour infusion at 3 μg/kg/min. The note with it: 1:1 molar donor:CAPTISOL, infused at 3 μg/kg/min, FIG. 4. Type of data set: in vivo. As to the method:
For samples at a pH of 4, the compositions were prepared by admixing a 1:1 molar ratio of the nitroxyl donor:CAPTISOL®, lyophilizing the admixture, then diluting the lyophilized admixture into D5W. For samples at a pH of 6, the compositions were prepared by admixing a 1:1 molar ratio of the nitroxyl donor:CAPTISOL®, lyophilizing the admixture, then diluting the lyophilized admixture into D5W with 5 mM potassium phosphate. Compounds were infused at a rate of 3 μg/kg/min.

Data set [6] can be described thus: In vitro stability (half-life) in dog plasma. Type of data set: in vitro ADME. The settings on record: male, dog, plasma, pH 7.4, 5 μM, dog plasma pH 7.4 with anticoagulant, 37° C.; read-out: T1/2 (minutes) Dog. As to the method:
as §1

Data set [7] in a line: Exploratory studies on the cause of CXL-1020 side effects (byproduct, alternative short half-life donors). Type of data set: in vivo. The note with it: studies conducted with the byproduct. The method, then:
Exploratory studies were continued to determine the cause of the undesirable side effects of CXL-1020 at the higher, but still clinically desirable, doses. […] Studies were conducted with alternative Nitroxyl donors that were structurally unrelated to CXL-1020 but had similar half-lives for nitroxyl donation (half-lives of about 2 minutes). In all instances, local vascular side effects at the catheter tip were observed.

Turning to `O=S(=O)(NO)c1ccc(Cl)s1` [Compound 86, 5-Chloro-N-hydroxythiophene-2-sulfonamide], the “NOAEL (μg/kg/min) (molar equivalent to CXL-1020)” value in data set [1] (based on microscopic pathology markers (edema, hemorrhage, vascular and perivascular inflammation)) is no less than 180 µg/kg/min. Also, the “toxicological profile relative to CXL-1020” value in data set [1] (microscopic pathology, Table 8) was “substantially improved toxicological profile relative to CXL-1020”. The values for the half-life at 5 μM in data set [2], in data set [3] and in data set [6] were 18 min, 38 min and 12 min, respectively. The “NOAEL (μg/kg/min) (actual)” value in data set [4] (based on clinical pathology markers (WBC, fibrinogen, CRP), 24 hour infusion, CAPTISOL 7% w/v, pH 4) was found to be 3 µg/kg/min. Further, the “NOAEL compared with CXL-1020” value in data set [4] (clinical pathology markers) is given as “significantly higher than that of CXL-1020”. Besides, the “effect of increasing infusate pH from approximately 4 to approximately 6 on toxicology” value in data set [5] is “improved the toxicology”.
In the case of `CS(=O)(=O)c1ccccc1S(=O)O` [byproduct of CXL-1020], the side effects entry in data set [7] is “negative”.

Values taken from patent US10245249B2, “Pharmaceutical compositions comprising nitroxyl donors” (Cardioxyl Pharmaceuticals, Inc., priority 2013, dated 2019).
